Data published in patent US20200037609A1, “HERBICIDAL COMPOSITIONS AND METHODS OF USE THEREOF” (The Regents of the University of California, priority 2017, published 2020).
Entries after “also recorded” stand apart in the source; their conditions may differ. Where two headings read alike, the source gives them in different places.

Key:
[1] = system: S. cerevisiae ΔILV3 expressing AstD; assay: Growth inhibition of S. cerevisiae ΔILV3 in ILV dropout media; assay type: cell-based; settings: Saccharomyces cerevisiae, read-out: IC50 of growth inhibition, yeast expressing AstD
Procedure: Growth inhibition assay of S. cerevisiae on plates or in the tubes. S. cerevisiae was grown in isoleucine, leucine and valine (ILV) dropout media (20 g/L glucose, 0.67 g/L Difco™ Yeast Nitrogen Base w/o amino acids, 18 mg/L adenine, arginine 76 mg/L, asparagine 76 mg/L, aspartic acid 76 mg/L, glutamic acid 76 mg/L, histidine 76 mg/L, lysine 76 mg/L, methionine 76 mg/L, phenylalanine 76 mg/L, serine 76 mg/L, threonine 76 mg/L, tryptophan 76 mg/L, tyrosine 76 mg/L) to test growth inhibition of AA on S. cerevisiae. S. cerevisiae was incubated at 28° C. until OD600 of the control strain without AA treatment reached about 0.8. The ratio of yeast OD600 in media with AA treatment to yeast OD600 in media without AA was calculated as the percentage of growth inhibition. The inhibition curve was plotted as percentage of inhibition versus AA concentrations. […] The growth curves of TY05, TY06 and TY07 were also plotted (FIG. 29A-29D). The OD600 was recorded for every 20 minutes over a total of 50 h. The inhibition percentage can be calculated by following equation: […]

Saccharomyces cerevisiae = assay: Yeast growth inhibition assay on plates; assay type: cell-based; settings: 250 μM aspterric acid
Procedure: Saccharomyces cerevisiae was plated onto dropout media that lacked isoleucine, leucine, and valine, either with or without 250 μM aspterric acid. Saccharomyces cerevisiae was also plated onto rich media that contained all amino acids along with 250 μM aspterric acid. Plates were incubated at 30° C.

Streptomyces sp. Mg1 = assay: Streptomyces growth inhibition assay; assay type: cell-based; settings: 250 μM aspterric acid
Procedure: Streptomyces sp. Mg1 was plated onto MS media either with or without 250 μM aspterric acid. Plates were incubated at 28° C.

[2] = system: tomato seedlings (Solanum lycopersicum); assay: Agar-based plant growth inhibition assay on MS media; assay type: in vivo; settings: 50 μM aspterric acid
Procedure: Sterile tomato seedlings were plated on MS media containing 50 μM aspterric acid and 1% DMSO (to increase the solubility of aspterric acid) or on MS media containing 50 μM glyphosate on day 0. MS media containing only 1% DMSO was used as a control. Growth was assessed on day 3 and day 7.
(§1) Growth inhibition assay of plants on plates or in the tubes. MS (2.16 g/L Murashige and Skoog basal medium, 8 g/L sucrose, 8 g/L agar) media was used to test the growth inhibition of AA on A. thaliana, Solanum lycopersicum, and Zea mays. A. thaliana, S. lycopersicum, G. max and Z. mays were grown under long day condition (16/8 h light/dark) using cool-white fluorescence bulbs as the light resource at 23° C. AA was dissolved in ethanol and added to the media before inoculating strains or growing plants. The media of control treatment contains the same amount of ethanol, but without AA.

Zea mays = assay: Plant growth inhibition assay on MS media; assay type: in vivo; settings: 50 μM AA
Procedure: as §1

[3] = system: soil-grown Arabidopsis thaliana Col-0 ecotype plants; assay: Herbicidal spray experiments with 1 mM aspterric acid in solvent formulations; assay type: in vivo
Procedure: Aspterric acid was dissolved in the following solvent formulations at a final concentration of 1 mM: (1) 0.5% silwet L-77 and 1% DMSO (floral dip formulation), (2) 2% EtOH, 1% corn oil, and 0.1% tween 80, and (3) 2% EtOH and 0.05% Finale (Finale formulation, contains a final concentration of […]).
For spray treatments with aspterric acid in the various formulations described above, Arabidopsis thaliana Col-0 ecotype plants were grown in soil under long day conditions (16 hours of light followed by 8 hours of dark per day) at 23° C. using cool-white fluorescence bulbs as the light source. Ten-day old seedlings were sprayed with 1 mM aspterric acid dissolved in formulation (1), (2), or (3) as described above. Spray application with the various respective formulations was repeated every 2 days.

[4] = system: glufosinate resistant A. thaliana; assay: Plant growth inhibition assay by spraying (250 μM AA in Finale + ethanol); assay type: in vivo, Arabidopsis thaliana; settings: glufosinate resistant plants without astD, listed as AA
Procedure: Plant growth inhibition assay by spraying. AA was firstly dissolved in ethanol and then added to solvent (0.06 g/L Finale® Bayer Inc.+20 g/L EtOH). The control plants were treated with solvent containing ethanol only. A. thaliana that are resistant to glufosinate (containing the bar gene) were grown under long day conditions (16/8 h light/dark) using cool-white fluorescence bulbs as the light resource at 23° C. Spraying treatments began when the seeds germinated, and was repeated once every two days with approximately 0.4 mL AA solution per time per pot.

[5] = system: pollen development in Arabidopsis thaliana; settings: literature, cited from earlier work

## CC(C)=C1CC[C@]23CO[C@H](C2)[C@@](O)(C(=O)O)CC[C@@H]13 [aspterric acid]
[1]
  IC50: ~200 µM
Saccharomyces cerevisiae
  growth of S. cerevisiae on media lacking isoleucine, leucine and valine: inhibited the growth
Saccharomyces cerevisiae; all amino acids present
  growth of S. cerevisiae on rich media: grew normally
Streptomyces sp. Mg1
  growth of Streptomyces on MS media: inhibited the growth
[2]
  growth of tomato (Solanum lycopersicum) on MS media: significant vegetative growth inhibition
[2]; listed as AA
  growth of tomato (Solanum lycopersicum) on MS media: effective inhibitor of root development and plant growth
Zea mays
  root development and plant growth of Zea mays on MS media: effective inhibitor of root development and plant growth
[3]; 1 mM in 0.5% silwet L-77 and 1% DMSO, every 2 days, 18 days after first spray
  growth after spray, formulation (1): showed growth inhibition
[3]; 1 mM in 2% EtOH and 0.05% Finale, glufosinate-resistant plants, 18 days after first spray
  growth after spray, formulation (3): significant growth inhibition
[3]; 1 mM in 2% EtOH, 1% corn oil, 0.1% tween 80, every 2 days, 17 days after first spray
  growth after spray, formulation (2): showed growth inhibition
[4]
  plant growth after spray of AA in Finale: severely inhibited plant growth; also recorded: strong growth inhibitory phenotype
[5]
  inhibition of pollen development in A. thaliana (previously reported): inhibit pollen development
[5]; listed as AA
  inhibition of pollen development in A. thaliana (previously reported): inhibitory activity towards pollen development
